From ChEMBL document CHEMBL1150788, “In vitro susceptibility of Sporothrix schenckii to six antifungal agents determined using three different methods” (2007)
Values after ≈ are worked out from the molar mass of the structure shown.

Assays:
Format in all cases: functional
Sporothrix schenckii [1] = test: Antifungal activity against Sporothrix schenckii P0019 isolate from cutaneous-lymphatic sporotrichosis patient after 72 hrs by Sensititre YeastOne method
Sporothrix schenckii [2] = test: Antifungal activity against Sporothrix schenckii PSSA81 isolate from cutaneous-lymphatic sporotrichosis patient after 72 hrs by Sensititre YeastOne method
Sporothrix schenckii [3] = test: Antifungal activity against Sporothrix schenckii P25013 isolate from cutaneous-lymphatic sporotrichosis patient after 72 hrs by Sensititre YeastOne method
Sporothrix schenckii [4] = test: Antifungal activity against Sporothrix schenckii P20825 isolate from cutaneous-lymphatic sporotrichosis patient after 72 hrs by Sensititre YeastOne method
Sporothrix schenckii [5] = test: Antifungal activity against Sporothrix schenckii P30019 isolate from cutaneous-lymphatic sporotrichosis patient after 72 hrs by Sensititre YeastOne method
Sporothrix schenckii [6] = test: Antifungal activity against Sporothrix schenckii P14954 isolate from cutaneous-lymphatic sporotrichosis patient after 72 hrs by Sensititre YeastOne method
Sporothrix schenckii [7] = test: Antifungal activity against Sporothrix schenckii MRSS4 isolate from cutaneous-lymphatic sporotrichosis patient after 72 hrs by Sensititre YeastOne method
Sporothrix schenckii [8] = test: Antifungal activity against Sporothrix schenckii P24223 isolate from cutaneous-lymphatic sporotrichosis patient after 72 hrs by Sensititre YeastOne method
Sporothrix schenckii [9] = test: Antifungal activity against Sporothrix schenckii PSCC1 isolate from cutaneous-lymphatic sporotrichosis patient after 72 hrs by Sensititre YeastOne method
Sporothrix schenckii [10] = test: Antifungal activity against Sporothrix schenckii P24255 isolate from cutaneous-lymphatic sporotrichosis patient after 72 hrs by Sensititre YeastOne method
Sporothrix schenckii [11] = test: Antifungal activity against Sporothrix schenckii P10012 isolate from cutaneous-lymphatic sporotrichosis patient after 72 hrs by Sensititre YeastOne method
Sporothrix schenckii [12] = test: Antifungal activity against Sporothrix schenckii P1621 isolate from cutaneous-lymphatic sporotrichosis patient after 72 hrs by Sensititre YeastOne method
Sporothrix schenckii [13] = test: Antifungal activity against Sporothrix schenckii SSA29 isolate from cutaneous-lymphatic sporotrichosis patient after 72 hrs by Sensititre YeastOne method
Sporothrix schenckii [14] = test: Antifungal activity against Sporothrix schenckii P26187 isolate from cutaneous-lymphatic sporotrichosis patient after 72 hrs by Sensititre YeastOne method
Sporothrix schenckii [15] = test: Antifungal activity against Sporothrix schenckii PGAC0016 isolate from cutaneous-lymphatic sporotrichosis patient after 72 hrs by Sensititre YeastOne method
Sporothrix schenckii [16] = test: Antifungal activity against Sporothrix schenckii PJRC002 isolate from cutaneous-lymphatic sporotrichosis patient after 72 hrs by Sensititre YeastOne method
Sporothrix schenckii [17] = test: Antifungal activity against Sporothrix schenckii P14036 isolate from cutaneous-lymphatic sporotrichosis patient after 72 hrs by Sensititre YeastOne method
Sporothrix schenckii [18] = test: Antifungal activity against Sporothrix schenckii P30915 isolate from cutaneous-lymphatic sporotrichosis patient after 72 hrs by Sensititre YeastOne method
Sporothrix schenckii [19] = test: Antifungal activity against Sporothrix schenckii P3287 isolate from cutaneous-lymphatic sporotrichosis patient after 72 hrs by Sensititre YeastOne method
Pichia kudriavzevii [20] = test: Antifungal activity against Candida krusei ATCC 6258 […] after 72 hrs by Sensititre YeastOne method; conditions: ATCC 6258, 72 h
Candida parapsilosis [21] = test: Antifungal activity against Candida parapsilosis ATCC 22019 […] after 72 hrs by Sensititre YeastOne method; conditions: Lodderomyces parapsilosis, ATCC 22019, 72 h
Sporothrix schenckii [22] = test: Antifungal activity against Sporothrix schenckii isolate from cutaneous-lymphatic sporotrichosis patient after 72 hrs by Sensititre YeastOne method
Sporothrix schenckii [23] = test: Antifungal activity against Sporothrix schenckii P0019 isolate from cutaneous-lymphatic sporotrichosis patient after 72 hrs by modified NCCLS M38-A method
Sporothrix schenckii [24] = test: Antifungal activity against Sporothrix schenckii PSSA81 isolate from cutaneous-lymphatic sporotrichosis patient after 72 hrs by modified NCCLS M38-A method
Sporothrix schenckii [25] = test: Antifungal activity against Sporothrix schenckii P25013 isolate from cutaneous-lymphatic sporotrichosis patient after 72 hrs by modified NCCLS M38-A method
Sporothrix schenckii [26] = test: Antifungal activity against Sporothrix schenckii P20825 isolate from cutaneous-lymphatic sporotrichosis patient after 72 hrs by modified NCCLS M38-A method
Sporothrix schenckii [27] = test: Antifungal activity against Sporothrix schenckii P30019 isolate from cutaneous-lymphatic sporotrichosis patient after 72 hrs by modified NCCLS M38-A method
Sporothrix schenckii [28] = test: Antifungal activity against Sporothrix schenckii P14954 isolate from cutaneous-lymphatic sporotrichosis patient after 72 hrs by modified NCCLS M38-A method
Sporothrix schenckii [29] = test: Antifungal activity against Sporothrix schenckii MRSS4 isolate from cutaneous-lymphatic sporotrichosis patient after 72 hrs by modified NCCLS M38-A method
Sporothrix schenckii [30] = test: Antifungal activity against Sporothrix schenckii P24223 isolate from cutaneous-lymphatic sporotrichosis patient after 72 hrs by modified NCCLS M38-A method
Sporothrix schenckii [31] = test: Antifungal activity against Sporothrix schenckii PSCC1 isolate from cutaneous-lymphatic sporotrichosis patient after 72 hrs by modified NCCLS M38-A method
Sporothrix schenckii [32] = test: Antifungal activity against Sporothrix schenckii P24255 isolate from cutaneous-lymphatic sporotrichosis patient after 72 hrs by modified NCCLS M38-A method
Sporothrix schenckii [33] = test: Antifungal activity against Sporothrix schenckii P10012 isolate from cutaneous-lymphatic sporotrichosis patient after 72 hrs by modified NCCLS M38-A method
Sporothrix schenckii [34] = test: Antifungal activity against Sporothrix schenckii P1621 isolate from cutaneous-lymphatic sporotrichosis patient after 72 hrs by modified NCCLS M38-A method
Sporothrix schenckii [35] = test: Antifungal activity against Sporothrix schenckii SSA29 isolate from cutaneous-lymphatic sporotrichosis patient after 72 hrs by modified NCCLS M38-A method
Sporothrix schenckii [36] = test: Antifungal activity against Sporothrix schenckii P26187 isolate from cutaneous-lymphatic sporotrichosis patient after 72 hrs by modified NCCLS M38-A method
Sporothrix schenckii [37] = test: Antifungal activity against Sporothrix schenckii PGAC0016 isolate from cutaneous-lymphatic sporotrichosis patient after 72 hrs by modified NCCLS M38-A method
Sporothrix schenckii [38] = test: Antifungal activity against Sporothrix schenckii PJRC002 isolate from cutaneous-lymphatic sporotrichosis patient after 72 hrs by modified NCCLS M38-A method
Sporothrix schenckii [39] = test: Antifungal activity against Sporothrix schenckii P14036 isolate from cutaneous-lymphatic sporotrichosis patient after 72 hrs by modified NCCLS M38-A method
Sporothrix schenckii [40] = test: Antifungal activity against Sporothrix schenckii P30915 isolate from cutaneous-lymphatic sporotrichosis patient after 72 hrs by modified NCCLS M38-A method
Sporothrix schenckii [41] = test: Antifungal activity against Sporothrix schenckii P3287 isolate from cutaneous-lymphatic sporotrichosis patient after 72 hrs by modified NCCLS M38-A method
Pichia kudriavzevii [42] = test: Antifungal activity against Candida krusei ATCC 6258 […] after 72 hrs by modified NCCLS M38-A method; conditions: ATCC 6258, 72 h
Candida parapsilosis [43] = test: Antifungal activity against Candida parapsilosis ATCC 22019 […] after 72 hrs by modified NCCLS M38-A method; conditions: Lodderomyces parapsilosis, ATCC 22019, 72 h
Aspergillus flavus [44] = test: Antifungal activity against Aspergillus flavus ATCC 204304 […] after 72 hrs by modified NCCLS M38-A method; conditions: ATCC 204304, 72 h
Aspergillus flavus [45] = test: Antifungal activity against Aspergillus flavus ATCC 204304 […] after 72 hrs by Sensititre YeastOne method; conditions: ATCC 204304, 72 h
Sporothrix schenckii [46] = test: Antifungal activity against Sporothrix schenckii isolate from cutaneous-lymphatic sporotrichosis patient after 72 hrs by modified NCCLS M38-A method

Structure (SMILES): CC(=O)N1CCN(c2ccc(OCC3COC(Cn4ccnc4)(c4ccc(Cl)cc4Cl)O3)cc2)CC1 (stereo unspecified) [KETOCONAZOLE]
- MIC (Sporothrix schenckii [1]): 0.06 µg/mL (≈ 0.113 µM)
- MIC (Sporothrix schenckii [2]): 0.06 µg/mL (≈ 0.113 µM)
- MIC (Sporothrix schenckii [3]): 0.06 µg/mL (≈ 0.113 µM)
- MIC (Sporothrix schenckii [4]): 0.125 µg/mL (≈ 0.235 µM)
- MIC (Sporothrix schenckii [5]): 0.125 µg/mL (≈ 0.235 µM)
- MIC (Sporothrix schenckii [6]): 0.25 µg/mL (≈ 0.47 µM)
- MIC (Sporothrix schenckii [7]): 0.25 µg/mL (≈ 0.47 µM)
- MIC (Sporothrix schenckii [8]): 0.5 µg/mL (≈ 0.941 µM)
- MIC (Sporothrix schenckii [9]): 0.125 µg/mL (≈ 0.235 µM)
- MIC (Sporothrix schenckii [10]): 0.125 µg/mL (≈ 0.235 µM)
- MIC (Sporothrix schenckii [11]): 0.25 µg/mL (≈ 0.47 µM)
- MIC (Sporothrix schenckii [12]): 0.25 µg/mL (≈ 0.47 µM)
- MIC (Sporothrix schenckii [13]): 0.25 µg/mL (≈ 0.47 µM)
- MIC (Sporothrix schenckii [14]): 0.25 µg/mL (≈ 0.47 µM)
- MIC (Sporothrix schenckii [15]): 0.125 µg/mL (≈ 0.235 µM)
- MIC (Sporothrix schenckii [16]): 0.125 µg/mL (≈ 0.235 µM)
- MIC (Sporothrix schenckii [17]): 0.125 µg/mL (≈ 0.235 µM)
- MIC (Sporothrix schenckii [18]): 0.5 µg/mL (≈ 0.941 µM)
- MIC (Sporothrix schenckii [19]): 0.5 µg/mL (≈ 0.941 µM)
- MIC (Pichia kudriavzevii [20]): 1 µg/mL (≈ 1.88 µM)
- MIC (Candida parapsilosis [21]): 0.125 µg/mL (≈ 0.235 µM)
- MIC50 (Sporothrix schenckii [22]): 0.25 µg/mL (≈ 0.47 µM)
- MIC90 (Sporothrix schenckii [22]): 0.5 µg/mL (≈ 0.941 µM)

Structure (SMILES): C[C@@H](c1ncncc1F)[C@](O)(Cn1cncn1)c1ccc(F)cc1F [VORICONAZOLE]
- MIC (Sporothrix schenckii [23]): 16 µg/mL (≈ 45.8 µM)
- MIC (Sporothrix schenckii [1]): 0.5 µg/mL (≈ 1.43 µM)
- MIC (Sporothrix schenckii [24]): 8 µg/mL (≈ 22.9 µM)
- MIC (Sporothrix schenckii [2]): 0.5 µg/mL (≈ 1.43 µM)
- MIC (Sporothrix schenckii [25]): 8 µg/mL (≈ 22.9 µM)
- MIC (Sporothrix schenckii [3]): 0.5 µg/mL (≈ 1.43 µM)
- MIC (Sporothrix schenckii [26]): 8 µg/mL (≈ 22.9 µM)
- MIC (Sporothrix schenckii [4]): 0.5 µg/mL (≈ 1.43 µM)
- MIC (Sporothrix schenckii [27]): 4 µg/mL (≈ 11.5 µM)
- MIC (Sporothrix schenckii [5]): 1 µg/mL (≈ 2.86 µM)
- MIC (Sporothrix schenckii [28]): 16 µg/mL (≈ 45.8 µM)
- MIC (Sporothrix schenckii [6]): 8 µg/mL (≈ 22.9 µM)
- MIC (Sporothrix schenckii [29]): 8 µg/mL (≈ 22.9 µM)
- MIC (Sporothrix schenckii [7]): 2 µg/mL (≈ 5.73 µM)
- MIC (Sporothrix schenckii [30]): 8 µg/mL (≈ 22.9 µM)
- MIC (Sporothrix schenckii [8]): 8 µg/mL (≈ 22.9 µM)
- MIC (Sporothrix schenckii [31]): 4 µg/mL (≈ 11.5 µM)
- MIC (Sporothrix schenckii [9]): 2 µg/mL (≈ 5.73 µM)
- MIC (Sporothrix schenckii [32]): 8 µg/mL (≈ 22.9 µM)
- MIC (Sporothrix schenckii [10]): 4 µg/mL (≈ 11.5 µM)
- MIC (Sporothrix schenckii [33]): 16 µg/mL (≈ 45.8 µM)
- MIC (Sporothrix schenckii [11]): 0.5 µg/mL (≈ 1.43 µM)
- MIC (Sporothrix schenckii [34]): 16 µg/mL (≈ 45.8 µM)
- MIC (Sporothrix schenckii [12]): 2 µg/mL (≈ 5.73 µM)
- MIC (Sporothrix schenckii [35]): 8 µg/mL (≈ 22.9 µM)
- MIC (Sporothrix schenckii [13]): 4 µg/mL (≈ 11.5 µM)
- MIC (Sporothrix schenckii [36]): 8 µg/mL (≈ 22.9 µM)
- MIC (Sporothrix schenckii [14]): 4 µg/mL (≈ 11.5 µM)
- MIC (Sporothrix schenckii [37]): 16 µg/mL (≈ 45.8 µM)
- MIC (Sporothrix schenckii [15]): 4 µg/mL (≈ 11.5 µM)
- MIC (Sporothrix schenckii [38]): 4 µg/mL (≈ 11.5 µM)
- MIC (Sporothrix schenckii [16]): 2 µg/mL (≈ 5.73 µM)
- MIC (Sporothrix schenckii [39]): 8 µg/mL (≈ 22.9 µM)
- MIC (Sporothrix schenckii [17]): 0.5 µg/mL (≈ 1.43 µM)
- MIC (Sporothrix schenckii [40]): 16 µg/mL (≈ 45.8 µM)
- MIC (Sporothrix schenckii [18]): 4 µg/mL (≈ 11.5 µM)
- MIC (Sporothrix schenckii [41]): 16 µg/mL (≈ 45.8 µM)
- MIC (Sporothrix schenckii [19]): 8 µg/mL (≈ 22.9 µM)
- MIC (Pichia kudriavzevii [42]): 0.12 µg/mL (≈ 0.344 µM)
- MIC (Pichia kudriavzevii [20]): 1 µg/mL (≈ 2.86 µM)
- MIC (Candida parapsilosis [43]): 0.03 µg/mL (≈ 0.0859 µM)
- MIC (Candida parapsilosis [21]): 0.06 µg/mL (≈ 0.172 µM)
- MIC (Aspergillus flavus [44]): 0.5 µg/mL (≈ 1.43 µM)
- MIC (Aspergillus flavus [45]): 0.25 µg/mL (≈ 0.716 µM)
- MIC50 (Sporothrix schenckii [46]): 8 µg/mL (≈ 22.9 µM)
- MIC90 (Sporothrix schenckii [46]): 16 µg/mL (≈ 45.8 µM)
- MIC50 (Sporothrix schenckii [22]): 2 µg/mL (≈ 5.73 µM)
- MIC90 (Sporothrix schenckii [22]): 8 µg/mL (≈ 22.9 µM)
